Measured values from ChEMBL document CHEMBL4177533, “Identification and Synthesis of Mycalol Analogues with Improved Potency against Anaplastic Thyroid Carcinoma Cell Lines” (J Nat Prod, 2017).

Experiments:
[1] = Cytotoxicity against human FRO cells assessed as reduction in cell viability incubated for 72 hrs by Cell-titer 96 aqueous one assay; format: functional, cell-based
[2] = Cytotoxicity against human ACT1 cells assessed as reduction in cell viability incubated for 72 hrs by Cell-titer 96 aqueous one assay; format: functional, cell-based
8505C = test: Cytotoxicity against human 8505C cells assessed as reduction in cell viability incubated for 72 hrs by Cell-titer 96 aqueous one assay; format: functional, cell-based
[3] = Cytotoxicity against human FRO cells assessed as reduction in cell viability in presence of shHMGA1 incubated for 72 hrs by Cell-titer 96 aqueous one assay; format: functional, cell-based
[4] = Potency index, ratio of IC50 for mycalol to IC50 for test compound against human FRO cells assessed as reduction in cell viability incubated for 72 hrs by Cell-titer 96 aqueous one assay; format: functional
[5] = Cytotoxicity against human FRTL5 cells assessed as reduction in cell viability incubated for 72 hrs by Cell-titer 96 aqueous one assay; format: cell-based; conditions: FRTL-5, 72 h

## CCCCC[C@H](CCCCCCCCCC[C@H](O)[C@H](O)CC[C@H](O)[C@H](O)CCOC[C@H](O)CO)OC(C)=O
[1]
  IC50: 16 µM

## CCCCCCC[C@H](CCCCCCCCCC[C@H](O)[C@H](O)CC[C@H](O)[C@H](O)CCOC[C@H](O)CO)OC(=O)C[C@H](C)O
[1]
  IC50: 16 µM

## CCCCCCCC[C@H](CCCCCCCCCC[C@H](O)[C@H](O)CC[C@H](O)[C@H](O)CCOC[C@H](O)CO)OC(=O)C[C@H](C)O
[1]
  IC50: 20 µM

## CCCCCCCCC[C@H](CCCCCCCCCC[C@H](O)[C@H](O)CC[C@H](O)[C@H](O)CCOC[C@H](O)CO)OC(=O)C[C@H](C)O
[1]
  IC50: 4.7 µM

## CCCCCCC[C@H](CCCCCCCCCC[C@H](O)[C@H](O)CC[C@H](O)[C@H](O)CCOC[C@H](O)CO)OC(C)=O (stereo in doubt; form 1)
[2]; Homo sapiens, 72 h
  IC50: 4.8 µM
[1]
  IC50: 2.3 µM
8505C; Homo sapiens, 8505C, 72 h
  IC50: 2.6 µM
[3]; Homo sapiens, 72 h
  IC50: 3.3 µM
[4]
  Ratio IC50: 6

## CCCCCCC[C@H](CCCCCCCCCC[C@H](O)[C@H](O)CC[C@H](O)[C@H](O)CCOC[C@H](O)CO)OC(C)=O (stereo in doubt; form 2)
[2]
  IC50: 5.1 µM
8505C; 8505c
  IC50: 2.1 µM
[5]
  IC50: > 40 µM
[3]
  IC50: 3.4 µM
